Experimental data taken from PubChem BioAssay (NCI).
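Cells were grown in 96-well plates and exposed to each compound for 48 hours at five concentrations; endpoints were interpolated linearly between bracketing concentrations, or set to the highest concentration if not reached. At the GI50, growth is halved. TGI: concentration producing complete growth inhibition.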

Legend:
Experiment in all cases: NCI anticancer screen, dose series, 48 h
786-0 renal = system: 786-0 renal
A498 renal = system: A498 renal
ACHN renal = system: ACHN renal
BT-549 breast = system: BT-549 breast
CAKI-1 renal = system: CAKI-1 renal
CCRF-CEM leukemia = system: CCRF-CEM leukemia
COLO 205 colon = system: COLO 205 colon
DU-145 prostate = system: DU-145 prostate
EKVX NSCLC = system: EKVX NSCLC
HCC-2998 colon = system: HCC-2998 colon
HCT-116 colon = system: HCT-116 colon
HCT-15 colon = system: HCT-15 colon
HL-60(TB) leukemia = system: HL-60(TB) leukemia
HOP-62 NSCLC = system: HOP-62 NSCLC
HOP-92 NSCLC = system: HOP-92 NSCLC
HS 578T breast = system: HS 578T breast
HT29 colon = system: HT29 colon
IGROV1 ovarian = system: IGROV1 ovarian
K-562 leukemia = system: K-562 leukemia
KM12 colon = system: KM12 colon
LOX IMVI melanoma = system: LOX IMVI melanoma
M14 melanoma = system: M14 melanoma
MCF7 breast = system: MCF7 breast
MDA-MB-231 breast = system: MDA-MB-231 breast
MDA-MB-435 = system: MDA-MB-435
MOLT-4 leukemia = system: MOLT-4 leukemia
NCI-H226 lung = system: NCI-H226 lung
NCI-H23 lung = system: NCI-H23 lung
NCI-H460 lung = system: NCI-H460 lung
NCI/ADR-RES ovarian = system: NCI/ADR-RES ovarian
OVCAR-4 ovarian = system: OVCAR-4 ovarian
OVCAR-8 ovarian = system: OVCAR-8 ovarian
PC-3 prostate = system: PC-3 prostate
RPMI-8226 leukemia = system: RPMI-8226 leukemia
RXF 393 renal = system: RXF 393 renal
SF-268 CNS = system: SF-268 CNS
SF-295 CNS = system: SF-295 CNS
SF-539 CNS = system: SF-539 CNS
SK-MEL-2 melanoma = system: SK-MEL-2 melanoma
SK-MEL-28 melanoma = system: SK-MEL-28 melanoma
SK-MEL-5 melanoma = system: SK-MEL-5 melanoma
SK-OV-3 ovarian = system: SK-OV-3 ovarian
SNB-19 CNS = system: SNB-19 CNS
SNB-75 CNS = system: SNB-75 CNS
SR leukemia = system: SR leukemia
SW-620 colon = system: SW-620 colon
T-47D breast = system: T-47D breast
TK-10 renal = system: TK-10 renal
U251 CNS = system: U251 CNS
UACC-257 melanoma = system: UACC-257 melanoma
UACC-62 melanoma = system: UACC-62 melanoma
UO-31 renal = system: UO-31 renal
A549 NSCLC = system: A549 NSCLC
MALME-3M melanoma = system: MALME-3M melanoma
NCI-H522 lung = system: NCI-H522 lung
OVCAR-3 ovarian = system: OVCAR-3 ovarian
OVCAR-5 ovarian = system: OVCAR-5 ovarian
SN12C renal = system: SN12C renal

## CCCCNC(=O)Nc1c(C(N)=O)c2n(c1C(=O)OCC)CCCCC2
786-0 renal
  TGI: > 100 µM
A498 renal
  TGI: > 100 µM
ACHN renal
  TGI: > 100 µM
BT-549 breast
  TGI: > 100 µM
CAKI-1 renal
  TGI: > 100 µM
CCRF-CEM leukemia
  TGI: > 100 µM
COLO 205 colon
  TGI: > 100 µM
DU-145 prostate
  TGI: > 100 µM
EKVX NSCLC
  TGI: > 100 µM
HCC-2998 colon
  TGI: > 100 µM
HCT-116 colon
  TGI: > 100 µM
HCT-15 colon
  TGI: > 100 µM
HL-60(TB) leukemia
  TGI: > 100 µM
HOP-62 NSCLC
  TGI: > 100 µM
HOP-92 NSCLC
  TGI: > 100 µM
HS 578T breast
  TGI: > 100 µM
HT29 colon
  TGI: > 100 µM
IGROV1 ovarian
  TGI: > 100 µM
K-562 leukemia
  TGI: > 100 µM
KM12 colon
  TGI: > 100 µM
LOX IMVI melanoma
  TGI: > 100 µM
M14 melanoma
  TGI: > 100 µM
MCF7 breast
  TGI: > 100 µM
MDA-MB-231 breast
  TGI: 58.4 µM
MDA-MB-435
  TGI: > 100 µM
MOLT-4 leukemia
  TGI: > 100 µM
NCI-H226 lung
  TGI: > 100 µM
NCI-H23 lung
  TGI: > 100 µM
NCI-H460 lung
  TGI: > 100 µM
NCI/ADR-RES ovarian
  TGI: > 100 µM
OVCAR-4 ovarian
  TGI: > 100 µM
OVCAR-8 ovarian
  TGI: > 100 µM
PC-3 prostate
  TGI: > 100 µM
RPMI-8226 leukemia
  TGI: > 100 µM
RXF 393 renal
  TGI: > 100 µM
SF-268 CNS
  TGI: > 100 µM
SF-295 CNS
  TGI: > 100 µM
SF-539 CNS
  TGI: > 100 µM
SK-MEL-2 melanoma
  TGI: > 100 µM
SK-MEL-28 melanoma
  TGI: > 100 µM
SK-MEL-5 melanoma
  TGI: > 100 µM
SK-OV-3 ovarian
  TGI: > 100 µM
SNB-19 CNS
  TGI: > 100 µM
SNB-75 CNS
  TGI: > 100 µM
SR leukemia
  TGI: > 100 µM
SW-620 colon
  TGI: > 100 µM
T-47D breast
  TGI: > 100 µM
TK-10 renal
  TGI: > 100 µM
U251 CNS
  TGI: > 100 µM
UACC-257 melanoma
  TGI: > 100 µM
UACC-62 melanoma
  TGI: > 100 µM
UO-31 renal
  TGI: > 100 µM

## COc1cc(C2CC(c3cc(C)ccc3C)=NN2c2ccc(S(=O)(=O)NC(=O)NCc3ccccc3)cc2)cc(OC)c1OC (stereo not drawn)
786-0 renal
  GI50: 3.79 µM
  TGI: 23.5 µM
A498 renal
  GI50: 3.09 µM
  TGI: 9.03 µM
A549 NSCLC
  GI50: 3.31 µM
  TGI: 14.4 µM
ACHN renal
  GI50: 3.47 µM
  TGI: 13.2 µM
BT-549 breast
  GI50: 3.08 µM
  TGI: 12.6 µM
CAKI-1 renal
  GI50: 3.17 µM
  TGI: 19.9 µM
CCRF-CEM leukemia
  GI50: 3.15 µM
  TGI: 18.6 µM
DU-145 prostate
  GI50: 6.05 µM
  TGI: 30.8 µM
HCC-2998 colon
  GI50: 2.63 µM
  TGI: 6.47 µM
HCT-116 colon
  GI50: 3.21 µM
  TGI: > 100 µM
HCT-15 colon
  GI50: 3.18 µM
  TGI: > 100 µM
HL-60(TB) leukemia
  GI50: 3.62 µM
  TGI: 11.4 µM
HOP-62 NSCLC
  GI50: 4.3 µM
  TGI: 37.1 µM
HOP-92 NSCLC
  GI50: 1.96 µM
  TGI: 7.47 µM
HS 578T breast
  GI50: 2.68 µM
  TGI: 7.67 µM
HT29 colon
  GI50: 3.87 µM
  TGI: 47.7 µM
IGROV1 ovarian
  GI50: 3.95 µM
  TGI: 19.8 µM
K-562 leukemia
  GI50: 4 µM
  TGI: 34.1 µM
KM12 colon
  GI50: 3.44 µM
  TGI: 17.6 µM
LOX IMVI melanoma
  GI50: 3.79 µM
  TGI: > 100 µM
MALME-3M melanoma
  GI50: 3.48 µM
  TGI: 9.61 µM
MCF7 breast
  GI50: 2.58 µM
  TGI: 9.56 µM
MDA-MB-231 breast
  GI50: 2.96 µM
  TGI: 13.3 µM
MDA-MB-435
  GI50: 2.27 µM
  TGI: 5.25 µM
MOLT-4 leukemia
  GI50: 3.24 µM
  TGI: 25.2 µM
NCI-H226 lung
  GI50: 3.63 µM
  TGI: 15.6 µM
NCI-H23 lung
  GI50: 3.37 µM
  TGI: 19.5 µM
NCI-H460 lung
  GI50: 2.54 µM
  TGI: 6.48 µM
NCI-H522 lung
  GI50: 3.55 µM
  TGI: 21.6 µM
NCI/ADR-RES ovarian
  GI50: 4.18 µM
  TGI: 31.7 µM
OVCAR-3 ovarian
  GI50: 2.42 µM
  TGI: 5.4 µM
OVCAR-4 ovarian
  GI50: 3.28 µM
  TGI: 39.6 µM
OVCAR-5 ovarian
  GI50: 4.19 µM
  TGI: 26.1 µM
OVCAR-8 ovarian
  GI50: 3.77 µM
  TGI: 32.4 µM
PC-3 prostate
  GI50: 2.54 µM
  TGI: 12.3 µM
RPMI-8226 leukemia
  GI50: 2.8 µM
  TGI: 9.11 µM
RXF 393 renal
  GI50: 2.9 µM
  TGI: 8.17 µM
SF-268 CNS
  GI50: 4.9 µM
  TGI: 34.8 µM
SF-539 CNS
  GI50: 2.02 µM
  TGI: 4.69 µM
SK-MEL-2 melanoma
  GI50: 2.81 µM
  TGI: 6.25 µM
SK-MEL-28 melanoma
  GI50: 2.26 µM
  TGI: 5.5 µM
SK-MEL-5 melanoma
  GI50: 2.04 µM
  TGI: 4.36 µM
SK-OV-3 ovarian
  GI50: 4.98 µM
  TGI: 18.4 µM
SN12C renal
  GI50: 3.15 µM
  TGI: 18.1 µM
SNB-19 CNS
  GI50: 3.75 µM
  TGI: 43.8 µM
SNB-75 CNS
  GI50: 2.33 µM
  TGI: 9.32 µM
SW-620 colon
  GI50: 3.62 µM
  TGI: > 100 µM
T-47D breast
  GI50: 4.19 µM
  TGI: 30.1 µM
TK-10 renal
  GI50: 4.74 µM
  TGI: 31 µM
U251 CNS
  GI50: 3.31 µM
  TGI: 17.3 µM
UACC-257 melanoma
  GI50: 3.53 µM
  TGI: 20.1 µM
UACC-62 melanoma
  GI50: 1.98 µM
  TGI: 4.48 µM
UO-31 renal
  GI50: 3.56 µM
  TGI: 15.6 µM
